Laboratory results reported in patent US20230077362A1 (CORTEVA AGRISCIENCE LLC, priority 2019, published 2023).
Where two headings read alike, the source gives them in different places.

How the values were obtained:
[1] = system: Beet Armyworm (Spodoptera exigua) ("BAW"), second instar larvae; test: Bioassay on beet armyworm (BAW), 128-well diet tray assay; format: in vivo; conditions: for BAW rating (% control or mortality class) / BAW rating: Table ABC, species BAW; for BAW rating (% control or mortality class): 128-well diet tray assay, second instar larvae; for pest or weed control at 50 µg/cm2: Spodoptera exigua; for BAW rating: C = not tested, D = no activity noticed
Summary of the method: (§1)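 Sealed trays, 25° C., 14:10 light:dark, 5–7 d. Per-well % mortality recorded, mean of eight wells reported.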

[2] = system: Cabbage Looper (Trichoplusia ni) ("CL"), second instar larvae; test: Bioassay on cabbage looper (CL), 128-well diet tray assay; format: in vivo; conditions: for mortality at 50 µg/cm2 / pest or weed control at 50 µg/cm2: Trichoplusia ni; for mortality at 50 µg/cm2 / CL rating: Table ABC, species CL; for mortality at 50 µg/cm2: 128-well diet tray assay, second instar larvae, read-out: CL rating (% control or mortality class); for CL rating: C = not tested, D = no activity noticed
Summary of the method: as §1

[3] = read-out: BAW (Biological Results, rating)
[4] = read-out: CL (Biological Results, rating)

Cc1ccc(COCC(F)F)c(N2C(=O)CS/C2=N\C(=O)Nc2ccc(-n3cnc(-c4ccc(OC(F)(F)F)cc4)c3)cc2Cl)c1 [Compound J787, (Z)-1-(2-Chloro-4-(4-(4-(trifluoromethoxy)phenyl)-1H-imidazol-1-yl)phenyl)-3-(3-(2-((2,2-difluoroethoxy)methyl)-5-methylphenyl)-4-oxothiazolidin-2-ylidene)urea]
BAW rating (% control or mortality class) [1]: A (50-100) | mortality at 50 µg/cm2 [2]: 50 to 100%

Cc1ccc(OCCC(F)(F)F)c(N2C(=O)CS/C2=N\C(=O)Nc2ccc(-c3ncn(-c4ccc(OC(F)(F)F)cc4)n3)cc2C(C)C)c1 [Compound J93, (Z)-1-(2-Isopropyl-4-(1-(4-(trifluoromethoxy)phenyl)-1H-1,2,4-triazol-3-yl)phenyl)-3-(3-(5-methyl-2-(3,3,3-trifluoropropoxy)phenyl)-4-oxothiazolidin-2-ylidene)urea]
pest or weed control at 50 µg/cm2 [1, 3]: 50 to 100% | pest or weed control at 50 µg/cm2 [2, 4]: 50 to 100%

Cc1ccc(OCCC(F)(F)F)c(N2C(=O)CS/C2=N\C(=O)Nc2ccc(-c3cn(-c4ccc(OC(F)(F)F)cc4)cn3)cc2F)c1 [Compound J476, (Z)-1-(2-Fluoro-4-(1-(4-(trifluoromethoxy)phenyl)-1H-imidazol-4-yl)phenyl)-3-(3-(5-methyl-2-(3,3,3-trifluoropropoxy)phenyl)-4-oxothiazolidin-2-ylidene)urea]
pest or weed control at 50 µg/cm2 ([1]; read-out: BAW rating): 50 to 100% | pest or weed control at 50 µg/cm2 ([2]; read-out: CL rating): 50 to 100%

Cc1ccc(COCC(F)(F)F)c(N2C(=O)CS/C2=N\C(=O)Nc2ccc(-c3ncn(-c4ccc(OC(F)(F)F)cc4)n3)cc2O)c1 [Compound J178, (Z)-1-(2-Hydroxy-4-(1-(4-(trifluoromethoxy)phenyl)-1H-1,2,4-triazol-3-yl)phenyl)-3-(3-(5-methyl-2-((2,2,2-trifluoroethoxy)methyl)phenyl)-4-oxothiazolidin-2-ylidene)urea]
pest or weed control at 50 µg/cm2 [1, 3]: 50 to 100% | pest or weed control at 50 µg/cm2 [2, 4]: 50 to 100%

COC(C)c1ccc(C)cc1N1C(=O)CS/C1=N\C(=O)Nc1ccc(-c2ncn(-c3ccc(SC(F)(F)F)cc3)n2)cc1F (stereo not shown) [Compound J187, (Z)-1-(2-Fluoro-4-(1-(4-((trifluoromethyl)thio)phenyl)-1H-1,2,4-triazol-3-yl)phenyl)-3-(3-(2-(1-methoxyethyl)-5-methylphenyl)-4-oxothiazolidin-2-ylidene)urea]
pest or weed control at 50 µg/cm2 [1, 3]: 50 to 100% | pest or weed control at 50 µg/cm2 [2, 4]: 50 to 100%

COc1ccc(-n2cnc(-c3ccc(NC(=O)/N=C4\SCC(=O)N4c4cc(C)ccc4COCC(F)(F)F)c(F)c3)n2)cc1 [Compound J754, (Z)-1-(2-Fluoro-4-(1-(4-methoxyphenyl)-1H-1,2,4-triazol-3-yl)phenyl)-3-(3-(5-methyl-2-((2,2,2-trifluoroethoxy)methyl)phenyl)-4-oxothiazolidin-2-ylidene)urea]
pest or weed control at 50 µg/cm2 ([1]; read-out: BAW rating): 50 to 100% | pest or weed control at 50 µg/cm2 ([2]; read-out: CL rating): 50 to 100%

Cc1ccc(C(C)C)c(N2C(=O)CS/C2=N\C(=O)Nc2ccc(-c3cn(-c4ccc(C(F)(F)F)cc4)cn3)cc2C)c1 [Compound J523, (Z)-1-(3-(2-Isopropyl-5-methylphenyl)-4-oxothiazolidin-2-ylidene)-3-(2-methyl-4-(1-(4-(trifluoromethyl)phenyl)-1H-imidazol-4-yl)phenyl)urea]
pest or weed control at 50 µg/cm2 ([1]; read-out: BAW rating): 50 to 100% | pest or weed control at 50 µg/cm2 ([2]; read-out: CL rating): 50 to 100%

Cc1ccc(COCC(Cl)(Cl)Cl)c(N2C(=O)CS/C2=N\C(=O)Nc2ccc(-c3ncn(-c4ccc(OC(F)(F)F)cc4)n3)cc2F)c1 [Compound J452]
BAW rating [1]: A (50-100) | CL rating [2]: A (50-100)

Cc1ccc(COCC(F)(F)F)c(N2C(=O)CS/C2=N\C(=O)Nc2ccc(-c3ncn(-c4ccc(S(F)(F)(F)(F)F)cc4)n3)cc2F)c1 [Compound J422]
BAW rating [1]: A (50-100) | CL rating [2]: A (50-100)

Cc1ccc(OCCC(F)(F)F)c(N2C(=O)CS/C2=N\C(=O)Nc2ccc(-n3cnc(-c4ccc(OC(F)(F)F)cc4)n3)cc2C)c1 [Compound J441, (Z)-1-(3-(5-Methyl-2-(3,3,3-trifluoropropoxy)phenyl)-4-oxothiazolidin-2-ylidene)-3-(2-methyl-4-(3-(4-(trifluoromethoxy)phenyl)-1H-1,2,4-triazol-1-yl)phenyl)urea]
pest or weed control at 50 µg/cm2 ([1]; read-out: BAW rating): 50 to 100% | pest or weed control at 50 µg/cm2 ([2]; read-out: CL rating): 50 to 100%

Cc1ccc(OCCC(F)(F)F)c(N2C(=O)CS/C2=N\C(=O)Nc2ccc(-c3ncn(-c4ccc(OC(F)(F)F)cc4)n3)cc2C)c1 [Compound J56, (Z)-1-(3-(5-Methyl-2-(3,3,3-trifluoropropoxy)phenyl)-4-oxothiazolidin-2-ylidene)-3-(2-methyl-4-(1-(4-(trifluoromethoxy)phenyl)-1H-1,2,4-triazol-3-yl)phenyl)urea]
pest or weed control at 50 µg/cm2 [1, 3]: 50 to 100% | pest or weed control at 50 µg/cm2 [2, 4]: 50 to 100%

Cc1cc(-c2ncn(-c3ccc(OCC#N)cc3)n2)ccc1NC(=O)/N=C1\SCC(=O)N1c1cc(N(C)C)ccc1C(C)C [Compound J357, (Z)-1-(4-(1-(4-(Cyanomethoxy)phenyl)-1H-1,2,4-triazol-3-yl)-2-methylphenyl)-3-(3-(5-(dimethylamino)-2-isopropylphenyl)-4-oxothiazolidin-2-ylidene)urea]
pest or weed control at 50 µg/cm2 ([1]; read-out: BAW rating): 50 to 100% | pest or weed control at 50 µg/cm2 ([2]; read-out: CL rating): 50 to 100%

Cc1ccc(COCC(F)(F)F)c(N2C(=O)CS/C2=N\C(=O)Nc2ccc(-c3ncn(-c4ccc([S+]([O-])C(F)(F)F)cc4)n3)cc2F)c1 (stereo not shown) [Compound J380, (Z)-1-(2-Fluoro-4-(1-(4-((trifluoromethyl)sulfinyl)phenyl)-1H-1,2,4-triazol-3-yl)phenyl)-3-(3-(5-methyl-2-((2,2,2-trifluoroethoxy)methyl)phenyl)-4-oxothiazolidin-2-ylidene)urea]
pest or weed control at 50 µg/cm2 ([1]; read-out: BAW rating): 50 to 100% | pest or weed control at 50 µg/cm2 ([2]; read-out: CL rating): 50 to 100%

O=C(/N=C1\SCC(=O)N1c1ccccc1COCC(F)(F)F)Nc1ccc(-c2ncn(-c3ccc(C(F)(F)F)cc3)n2)cc1F [Compound J661]
BAW rating [1]: A (50-100) | CL rating [2]: A (50-100)

CCOC(C)c1ccc(C)cc1N1C(=O)CS/C1=N\C(=O)Nc1ccc(-c2cn(-c3ccc(S(F)(F)(F)(F)F)cc3)cn2)cc1F (stereo not shown) [Compound J594, (Z)-1-(3-(2-(1-Ethoxyethyl)-5-methylphenyl)-4-oxothiazolidin-2-ylidene)-3-(2-fluoro-4-(1-(4-(pentafluoro-λ^6-sulfaneyl)phenyl)-1H-imidazol-4-yl)phenyl)urea]
pest or weed control at 50 µg/cm2 ([1]; read-out: BAW rating): 50 to 100% | pest or weed control at 50 µg/cm2 ([2]; read-out: CL rating): 50 to 100%

Cc1ccc(COCCF)c(N2C(=O)CS/C2=N\C(=O)Nc2ccc(-c3ncn(-c4ccc(OC(F)(F)C(F)(F)F)cc4)n3)cc2C)c1 [Compound J801, (Z)-1-(3-(2-((2-Fluoroethoxy)methyl)-5-methylphenyl)-4-oxothiazolidin-2-ylidene)-3-(2-methyl-4-(1-(4-(perfluoroethoxy)phenyl)-1H-1,2,4-triazol-3-yl)phenyl)urea]
BAW rating (% control or mortality class) [1]: A (50-100) | mortality at 50 µg/cm2 [2]: 50 to 100%

CCc1cc(-c2ncn(-c3ccc(OC(F)(F)F)cc3)n2)ccc1NC(=O)/N=C1\SCC(=O)N1c1cc(N(C)C)ccc1OCCC(F)(F)F [Compound J110, (Z)-1-(3-(5-(Dimethylamino)-2-(3,3,3-trifluoropropoxy)phenyl)-4-oxothiazolidin-2-ylidene)-3-(2-ethyl-4-(1-(4-(trifluoromethoxy)phenyl)-1H-1,2,4-triazol-3-yl)phenyl)urea]
pest or weed control at 50 µg/cm2 [1, 3]: 50 to 100% | pest or weed control at 50 µg/cm2 [2, 4]: 50 to 100%
